Measured values as given in patent US8697691B2, “Alkyl 3-((2-amidoethyl)amino)-8-azabicyclo[3.2.1]octane-8-carboxylate analogs as selective M1 agonists and methods of making and using same” (Vanderbilt University, priority 2009, dated 2014).
Read-outs that look alike come from different tables or passages of the source.

Molecular target: T1, rat M1 receptor (Rattus norvegicus, UniProt P08482)
T1 construct: host or cells: CHO-K1
T1 sequence (P08482 1-460): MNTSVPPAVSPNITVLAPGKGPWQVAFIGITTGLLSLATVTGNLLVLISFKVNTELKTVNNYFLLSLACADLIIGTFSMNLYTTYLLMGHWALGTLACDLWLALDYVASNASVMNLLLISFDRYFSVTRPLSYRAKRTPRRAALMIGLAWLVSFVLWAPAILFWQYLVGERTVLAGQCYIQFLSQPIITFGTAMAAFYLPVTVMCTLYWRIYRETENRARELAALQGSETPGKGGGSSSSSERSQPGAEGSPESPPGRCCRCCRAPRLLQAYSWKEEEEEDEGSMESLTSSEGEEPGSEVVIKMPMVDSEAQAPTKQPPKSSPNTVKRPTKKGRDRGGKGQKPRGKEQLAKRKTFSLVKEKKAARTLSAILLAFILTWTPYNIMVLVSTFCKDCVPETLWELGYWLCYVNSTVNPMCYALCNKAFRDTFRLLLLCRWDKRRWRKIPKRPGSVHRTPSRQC
Assay: Calcium mobilization assay, CHO-K1 cells stably expressing rat M1 (low throughput, Flexstation II)
Type: cell-based
Details: for Emax: CHO-K1, read-out: Efficacy (% Max ACh)
From the text: Chinese hamster ovary (CHO-K1) cells stably expressing rat (r)M1 were purchased from the American Type Culture Collection and cultured according to their indicated protocol. CHO cells stably expressing human (h)M2, hM3, and hM5 were described previously (Levey et al., 1991); hM1 and hM4 cDNAs were purchased from Missouri S&T cDNA Resource; rM4 cDNA was provided by T. I. Bonner (National Institutes of Health, Bethesda, Md.). hM1, hM4, and rM4 cDNAs were used to stably transfect CHO-K1 cells purchased from the American Type Culture Collection using Lipofectamine2000. To make stable hM2, hM4 and rM4 cell lines for use in calcium mobilization assays, these cells also were stably transfected with a chimeric G-protein (Gqi5) (provided by B. R. Conklin, University of California, San Francisco) using Lipofectamine 2000. rM1, hM3, and hM5 cells were grown in Ham's F-12 medium containing 10% heat-inactivated fetal bovine serum (FBS), 20 mM HEPES, and 50 μg/mL G418 sulfate. hM2-Gqi5 and hM4-Gqi5 cells were grown in the same medium also containing 500 μg/mL Hygromycin B. Stable rM4-Gqi5 cells were grown in DMEM containing 10% heat-inactivated FBS, 20 mM HEPES, 400 μg/mL G418 sulfate, and 500 μg/mL Hygromycin B. The rat M1 Y381A orthosteric mutant receptor cDNA was generated using the Quik-Change site-directed mutagenesis kit (Stratagene) and verified by sequencing. CHO-K1 cells were stably transfected with this cDNA using Lipofectamine2000 and screened for expression based on calcium mobilization in response to the allosteric M1 agonist N-desmethylclozapine.
For low throughput measurement of agonist-evoked increases in intracellular calcium, CHO-K1 cells stably expressing muscarinic receptors were plated in 100 μL of growth medium at 5×10^4 (rM1, hM3, and hM5) or 6×10^4 cells per well (rM1 Y381A, hM2, and rM4) in Costar 96-well black-walled, tissue culture (TC)-treated, clear-bottom plates (Fisher). Cells were incubated overnight at 37° C. and 5% CO2. The next day, medium was removed from the cells, and they were incubated with 50 μL of 2 μM Fluo-4/acetoxymethyl ester (Invitrogen, Carlsbad, Calif.) prepared as a 2.3 mM stock in DMSO and mixed in a 1:1 ratio with 10% (w/v) Pluronic F-127 and diluted in assay buffer [HBSS (Invitrogen) supplemented with 20 mM HEPES and 2.5 mM probenecid, pH 7.4] for 1 h at 37° C. and 5% CO2. Dye was removed and replaced with 50 μL of assay buffer. For calcium fluorescence measurements, CRCs of compounds (50 μl, 2×) were added 19 s after the beginning of data collection via a Flexstation II (Molecular Devices, Sunnyvale, Calif.). Fluorescence imaging continued for a total of 130 s acquisition time using an excitation wavelength of 488 nm, an emission wavelength of 525 nm, and a cutoff wavelength of 515 nm. All of the peaks of the calcium response were normalized to the response to a maximally effective concentration of ACh (ECmax). These normalized peak calcium response values were fit using GraphPad Prism version 4.0 to a four-parameter logistic equation to determine EC50 values.

[1] = rat M1, agonist-evoked calcium mobilization in CHO-K1 cells, read-out: Potency (EC50)

| SMILES | EC50 | Emax | EC50 [1] |
| --- | --- | --- | --- |
| CCOC(=O)N1C2CCC1CC(NCCNC(=O)c1cccs1)C2 (centres unmarked) [Example 1, Ethyl 3-(2-(thiophene-2-carboxamido)ethylamino)-8-azabicyclo[3.2.1]octane-8-carboxylate] | 74 nM | 88% | – |
| CCOC(=O)N1C2CCC1CC(NCCNC(=O)c1ccccc1F)C2 (centres unmarked) [Example 2, Ethyl 3-(2-(2-fluorobenzamido)ethylamino)-8-azabicyclo[3.2.1]octane-8-carboxylate] | 69 nM | 103% | – |
| CCOC(=O)N1C2CCC1CC(NCCNC(=O)c1ccccc1C)C2 (centres unmarked) [Example 3, ethyl 3-({2-[(2-methylphenyl)formamido]-ethyl}amino)-8-azabicyclo[3.2.1]octane-8-carboxylate] | 85 nM | 81% | – |
| CCOC(=O)N1C2CCC1CC(NCCNC(=O)c1cccc(OC)c1)C2 (centres unmarked) [Example 4, ethyl 3-({2-[(3-methoxy-phenyl)formamido]-ethyl}amino)-8-azabicyclo[3.2.1]octane-8-carboxylate] | – | 81% | 211 nM |
| CCOC(=O)N1C2CCC1CC(NCCNC(=O)c1ccc(F)cc1C(F)(F)F)C2 (centres unmarked) [Example 5, ethyl 3-[(2-{[4-fluoro-2-(trifluoromethyl)phenyl]-formamido}ethyl)-amino]-8-azabicyclo[3.2.1]octane-8-carboxylate] | – | 39% | – |
| CCOC(=O)N1C2CCC1CC(NCCNC(=O)c1ccc(F)cc1F)C2 (centres unmarked) [Example 6, ethyl 3-({2-[(2,4-difluorophenyl)formamido]-ethyl}amino)-8-azabicyclo[3.2.1]octane-8-carboxylate] | 72 nM | 82% | – |
| CCOC(=O)N1C2CCC1CC(NCCNC(=O)c1ccc(F)cc1Cl)C2 (centres unmarked) [Example 7, ethyl 3({2-[(2-chloro-4-fluorophenyl)formamido]-ethyl}amino)-8-azabicyclo[3.2.1]octane-8-carboxylate] | 96 nM | 95% | – |
| CCOC(=O)N1C2CCC1CC(NCCNC(=O)c1ccc(C)cc1)C2 (centres unmarked) [Example 8, ethyl 3-({2-[(4-methylphenyl)formamido]-ethyl}amino)-8-azabicyclo[3.2.1]octane-8-carboxylate] | – | 47% | – |
| CCOC(=O)N1C2CCC1CC(NCCNC(=O)c1cccc(C)c1)C2 (centres unmarked) [Example 9, ethyl 3-({2-[(3-methylphenyl)formamido]-ethyl}amino)-8-azabicyclo[3.2.1]octane-8-carboxylate] | – | 103% | 115 nM |
| CCOC(=O)N1C2CCC1CC(NCCNC(=O)c1ccc(Cl)c(Cl)c1)C2 (centres unmarked) [Example 10, ethyl 3-({2-[(3,4-dichlorophenyl)formamido]-ethyl}amino)-8-azabicyclo[3.2.1]octane-8-carboxylate] | – | 49% | 1020 nM |
| CCOC(=O)N1C2CCC1CC(NCCNC(=O)c1ccc(C)c(C)c1)C2 (centres unmarked) [Example 11, ethyl 3-({2-[(3,4-dimethylphenyl)formamido]-ethyl}amino)-8-azabicyclo[3.2.1]octane-8-carboxylate] | – | 48% | – |
| CCOC(=O)N1C2CCC1CC(NCCNC(=O)c1ccc3c(c1)CCO3)C2 (centres unmarked) [Example 12, ethyl 3-{[2-(2,3-dihydro-1-benzofuran-5-ylformamido)ethyl]-amino}-8-azabicyclo[3.2.1]octane-8-carboxylate] | – | 31% | – |
| CCOC(=O)N1C2CCC1CC(NCCNC(=O)c1ccc(C)c(F)c1)C2 (centres unmarked) [Example 13, ethyl 3-({2-[(3-fluoro-4-methylphenyl)formamido]-ethyl}amino)-8-azabicyclo[3.2.1]octane-8-carboxylate] | – | 50% | 631 nM |
| CCOC(=O)N1C2CCC1CC(NCCNC(=O)c1ccco1)C2 (centres unmarked) [Example 14, ethyl 3-{[2-(furan-2-ylformamido)ethyl]-amino}-8-azabicyclo[3.2.1]octane-8-carboxylate] | – | 24% | – |
| CCOC(=O)N1C2CCC1CC(NCCNC(=O)c1ccc(F)c(F)c1)C2 (centres unmarked) [Example 15, ethyl 3-({2-[(3,4-difluorophenyl)formamido]-ethyl}amino)-8-azabicyclo[3.2.1]octane-8-carboxylate] | – | 104% | 122 nM |
| CCOC(=O)N1C2CCC1CC(NCCNC(=O)c1ccccn1)C2 (centres unmarked) [Example 16, ethyl 3-{[2-(pyridin-2-ylformamido)ethyl]-amino}-8-azabicyclo[3.2.1]octane-8-carboxylate] | – | 22% | – |
| CCOC(=O)N1C2CCC1CC(NCCNC(=O)c1ccc(Cl)cc1F)C2 (centres unmarked) [Example 17, ethyl 3-({2-[(4-chloro-2-fluorophenyl)formamido]-ethyl}amino)-8-azabicyclo[3.2.1]octane-8-carboxylate] | – | 20% | – |
| CCOC(=O)N1C2CCC1CC(NCCNC(=O)c1ccccc1)C2 (centres unmarked) [Example 18, ethyl 3-{[2-(phenylformamido)ethyl]-amino}-8-azabicyclo[3.2.1]octane-8-carboxylate] | 67 nM | 103% | – |
| CCOC(=O)N1C2CCC1CC(NCCNC(=O)Cc1ccccc1)C2 (centres unmarked) [Example 19, ethyl 3-{[2-(2-phenylacetamido)ethyl]-amino}-8-azabicyclo[3.2.1]octane-8-carboxylate] | – | 33% | – |
| CCOC(=O)N1C2CCC1CC(NCCNC(=O)Cc1cccs1)C2 (centres unmarked) [Example 20, ethyl 3-({2-[2-(thiophen-2-yl)acetamido]ethyl}-amino)-8-azabicyclo[3.2.1]octane-8-carboxylate] | – | 51% | – |
| CCOC(=O)N1C2CCC1CC(NCCNC(=O)c1c(F)cccc1F)C2 (centres unmarked) [Example 21, ethyl 3-({2-[(2,6-difluorophenyl)formamido]-ethyl}amino)-8-azabicyclo[3.2.1]octane-8-carboxylate] | – | 18% | 880 nM |
| CCOC(=O)N1C2CCC1CC(NCCNC(=O)c1ccc(F)c(OC)c1)C2 (centres unmarked) [Example 22, ethyl 3-({2-[(4-fluoro-3-methoxyphenyl)formamido]-ethyl}amino)-8-azabicyclo[3.2.1]octane-8-carboxylate] | – | 12% | 1460 nM |
| CCOC(=O)N1C2CCC1CC(NCCNC(=O)c1ccc(F)c(C(F)(F)F)c1)C2 (centres unmarked) [Example 23, ethyl 3-[(2-{[4-fluoro-3-(trifluoromethyl)phenyl]-formamido}ethyl)amino]-8-azabicyclo[3.2.1]octane-8-carboxylate] | – | 47% | 2720 nM |
| CCOC(=O)N1C2CCC1CC(NCCNC(=O)c1ccc(Cl)cc1)C2 (centres unmarked) [Example 24] | – | 25% | 1070 nM |
| CCOC(=O)N1C2CCC1CC(NCCNC(=O)c1ccccc1Cl)C2 (centres unmarked) [Example 25, ethyl 3-({2-[(2-chlorophenyl)formamido]-ethyl}amino)-8-azabicyclo[3.2.1]octane-8-carboxylate] | – | 80% | 112 nM |
